Results published in patent US20260306503A1, “(S)-2-HYDROXY-6-((4-(2-(2-HYDROXYETHYL)NICOTINOYL)MORPHOLIN-3-YL)METHOXY)BENZALDEHYD FOR USE IN THE TREATMENT OF SICKLE CELL DISEASE” (Global Blood Therapeutics, Inc., priority 2023, published 2026).

Tested on: participants with SCD
Assay: Preliminary blood analysis of SCD patients given oral Compound I, 300 mg QD for 14 days then 200 mg QD through Week 12 (Part A Sub Study 2);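 on Bilirubin total: values in mg/dL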
Assay type: in vivo, human
Conditions: for Bilirubin total: Day 0 (screening) 4.84
Procedure: Part A of this study is a Phase 2 randomized, open-label, dose-finding study in approximately 60 adult participants with SCD. The primary objective of Part A of this study is to assess the effects of Compound I in adult participants with SCD as measured by change in hemoglobin.
Participants are screened for eligibility in the study from Day −28 through Day −1. Eligible participants are randomized on Day 1 based on a 1:1 (100 mg: 150 mg) allocation and will receive their initial dose (loading dose) of Compound I. After completion of Day 1 assessments and subsequent loading doses, participants will continue with administration of their maintenance dose daily through Week 12.
Some newly enrolled participants in Part A will receive a loading dose regimen of 300 mg of Compound I once daily over the first 14 days. Participants will then receive 200 mg once daily maintenance doses through Week 12.

O=Cc1c(O)cccc1OC[C@@H]1COCCN1C(=O)c1cccnc1CCO [Compound I, (S)-2-hydroxy-6-((4-(2-(2-hydroxyethyl)nicotinoyl)morpholin-3-yl)methoxy)benzaldehyde]
Hematocrit (HCT) (Patient B, Day 43, Day 0 (screening) 23.5): 45.4% | Aspartate Aminotransferase (AST) (Patient B, Day 43, Day 0 (screening) 41.1): 27.1 IU/L | Alkaline phosphatase (Patient B, Day 43, Day 0 (screening) 49.3): 67.6 IU/L | Platelet count (Patient B, Day 43, Day 0 (screening) 360): 260 K/μL | Lactate dehydrogenase (LDH) (Patient B, Day 43, Day 0 (screening) 371): 151 IU/L | Bilirubin direct (Patient B, Day 57, Day 0 (screening) 0.18): 0.18 mg/dL | Bilirubin indirect (Patient B, Day 57, Day 0 (screening) 4.66): 0.39 mg/dL | Bilirubin total (Patient B, Day 57): 0.57 mg/dL | Absolute neutrophil (Patient B, Day 57, Day 0 (screening) 6.9): 5.5 K/μL | Hemoglobin (HGB) (Patient B, Day 57, Day 0 (screening) 8.3): 14.3 g/dL | Reticulocytes (Patient B, Day 57, Day 0 (screening) 11.5): 0.9% | Alanine Aminotransferase (ALT) (Patient B, Day 57, Day 0 (screening) 22.0): 17.9 IU/L | Hematocrit (HCT) (Patient B, Day 57, Day 0 (screening) 23.5): 42.6% | Aspartate Aminotransferase (AST) (Patient B, Day 57, Day 0 (screening) 41.1): 26.2 IU/L | Alkaline phosphatase (Patient B, Day 57, Day 0 (screening) 49.3): 69.6 IU/L | Platelet count (Patient B, Day 57, Day 0 (screening) 360): 290 K/μL | Lactate dehydrogenase (LDH) (Patient B, Day 57, Day 0 (screening) 371): 152 IU/L | Bilirubin direct (Patient B, Day 85, Day 0 (screening) 0.18): <0.01 mg/dL | Bilirubin total (Patient B, Day 85): 0.94 mg/dL | Absolute neutrophil (Patient B, Day 85, Day 0 (screening) 6.9): 5.6 K/μL | Hemoglobin (HGB) (Patient B, Day 85, Day 0 (screening) 8.3): 14.9 g/dL | Reticulocytes (Patient B, Day 85, Day 0 (screening) 11.5): 1.1% | Alanine Aminotransferase (ALT) (Patient B, Day 85, Day 0 (screening) 22.0): 20.0 IU/L | Hematocrit (HCT) (Patient B, Day 85, Day 0 (screening) 23.5): 43.7% | Aspartate Aminotransferase (AST) (Patient B, Day 85, Day 0 (screening) 41.1): 27.1 IU/L | Alkaline phosphatase (Patient B, Day 85, Day 0 (screening) 49.3): 72.6 IU/L | Platelet count (Patient B, Day 85, Day 0 (screening) 360): 256 K/μL | Lactate dehydrogenase (LDH) (Patient B, Day 85, Day 0 (screening) 371): 141 IU/L | Bilirubin direct (Patient C, Day 1, Day 0 (screening) 0.58): 0.58 mg/dL | Bilirubin indirect (Patient C, Day 1, Day 0 (screening) 4.26): 4.87 mg/dL | Bilirubin total (Patient C, Day 1): 5.45 mg/dL | Alanine Aminotransferase (ALT) (Patient C, Day 1, Day 0 (screening) 20.0): 24.8 IU/L | Aspartate Aminotransferase (AST) (Patient C, Day 1, Day 0 (screening) 48.0): 62.0 IU/L | Alkaline phosphatase (Patient C, Day 1, Day 0 (screening) 52.4): 51.4 IU/L | Lactate dehydrogenase (LDH) (Patient C, Day 1, Day 0 (screening) 533): 691 IU/L | Bilirubin direct (Patient C, Day 8, Day 0 (screening) 0.58): 0.38 mg/dL | Absolute neutrophil (Patient C, Day 8, Day 0 (screening) 0.8): 6.7 K/μL | Bilirubin indirect (Patient C, Day 8, Day 0 (screening) 4.26): 3.85 mg/dL | Bilirubin total (Patient C, Day 8): 4.23 mg/dL | Hemoglobin (HGB) (Patient C, Day 8, Day 0 (screening) 7.1): 9.1 g/dL | Reticulocytes (Patient C, Day 8, Day 0 (screening) 13.7): 9.9% | Alanine Aminotransferase (ALT) (Patient C, Day 8, Day 0 (screening) 20.0): 28.9 IU/L | Hematocrit (HCT) (Patient C, Day 8, Day 0 (screening) 21.0): 25.9% | Aspartate Aminotransferase (AST) (Patient C, Day 8, Day 0 (screening) 48.0): 57.0 IU/L | Alkaline phosphatase (Patient C, Day 8, Day 0 (screening) 52.4): 61.5 IU/L | Platelet count (Patient C, Day 8, Day 0 (screening) 392): 405 K/μL | Lactate dehydrogenase (LDH) (Patient C, Day 8, Day 0 (screening) 533): 545 IU/L | Bilirubin direct (Patient C, Day 15, Day 0 (screening) 0.58): 0.38 mg/dL | Absolute neutrophil (Patient C, Day 15, Day 0 (screening) 0.8): 3.9 K/μL | Bilirubin indirect (Patient C, Day 15, Day 0 (screening) 4.26): 3.12 mg/dL | Bilirubin total (Patient C, Day 15): 3.50 mg/dL | Hemoglobin (HGB) (Patient C, Day 15, Day 0 (screening) 7.1): 10.2 g/dL | Reticulocytes (Patient C, Day 15, Day 0 (screening) 13.7): 5.0% | Alanine Aminotransferase (ALT) (Patient C, Day 15, Day 0 (screening) 20.0): 18.6 IU/L | Hematocrit (HCT) (Patient C, Day 15, Day 0 (screening) 21.0): 29.8% | Aspartate Aminotransferase (AST) (Patient C, Day 15, Day 0 (screening) 48.0): 34.1 IU/L | Alkaline phosphatase (Patient C, Day 15, Day 0 (screening) 52.4): 54.4 IU/L | Platelet count (Patient C, Day 15, Day 0 (screening) 392): 482 K/μL | Lactate dehydrogenase (LDH) (Patient C, Day 15, Day 0 (screening) 533): 327 IU/L | Bilirubin direct (Patient C, Day 29, Day 0 (screening) 0.58): 0.38 mg/dL | Absolute neutrophil (Patient C, Day 29, Day 0 (screening) 0.8): 2.6 K/μL | Bilirubin indirect (Patient C, Day 29, Day 0 (screening) 4.26): 2.51 mg/dL | Bilirubin total (Patient C, Day 29): 2.89 mg/dL | Hemoglobin (HGB) (Patient C, Day 29, Day 0 (screening) 7.1): 11.6 g/dL | Reticulocytes (Patient C, Day 29, Day 0 (screening) 13.7): 1.8% | Alanine Aminotransferase (ALT) (Patient C, Day 29, Day 0 (screening) 20.0): 17.2 IU/L | Hematocrit (HCT) (Patient C, Day 29, Day 0 (screening) 21.0): 33.9% | Aspartate Aminotransferase (AST) (Patient C, Day 29, Day 0 (screening) 48.0): 39.1 IU/L | Alkaline phosphatase (Patient C, Day 29, Day 0 (screening) 52.4): 51.4 IU/L | Platelet count (Patient C, Day 29, Day 0 (screening) 392): 357 K/μL | Lactate dehydrogenase (LDH) (Patient C, Day 29, Day 0 (screening) 533): 256 IU/L | Bilirubin direct (Patient C, Day 43, Day 0 (screening) 0.58): 0.28 mg/dL | Absolute neutrophil (Patient C, Day 43, Day 0 (screening) 0.8): 1.0 K/μL | Bilirubin indirect (Patient C, Day 43, Day 0 (screening) 4.26): 4.44 mg/dL | Bilirubin total (Patient C, Day 43): 4.72 mg/dL | Hemoglobin (HGB) (Patient C, Day 43, Day 0 (screening) 7.1): 10.5 g/dL | Reticulocytes (Patient C, Day 43, Day 0 (screening) 13.7): 2.8% | Alanine Aminotransferase (ALT) (Patient C, Day 43, Day 0 (screening) 20.0): 26.8 IU/L | Hematocrit (HCT) (Patient C, Day 43, Day 0 (screening) 21.0): 30.1% | Aspartate Aminotransferase (AST) (Patient C, Day 43, Day 0 (screening) 48.0): 46.1 IU/L | Alkaline phosphatase (Patient C, Day 43, Day 0 (screening) 52.4): 58.5 IU/L | Platelet count (Patient C, Day 43, Day 0 (screening) 392): 416 K/μL | Lactate dehydrogenase (LDH) (Patient C, Day 43, Day 0 (screening) 533): 291 IU/L | Bilirubin direct (Patient C, Day 57, Day 0 (screening) 0.58): 0.18 mg/dL | Absolute neutrophil (Patient C, Day 57, Day 0 (screening) 0.8): 4.3 K/μL | Bilirubin indirect (Patient C, Day 57, Day 0 (screening) 4.26): 3.44 mg/dL | Bilirubin total (Patient C, Day 57): 3.62 mg/dL | Hemoglobin (HGB) (Patient C, Day 57, Day 0 (screening) 7.1): 10.4 g/dL | Reticulocytes (Patient C, Day 57, Day 0 (screening) 13.7): 4.2% | Alanine Aminotransferase (ALT) (Patient C, Day 57, Day 0 (screening) 20.0): 21.3 IU/L | Hematocrit (HCT) (Patient C, Day 57, Day 0 (screening) 21.0): 28.9% | Aspartate Aminotransferase (AST) (Patient C, Day 57, Day 0 (screening) 48.0): 46.1 IU/L | Alkaline phosphatase (Patient C, Day 57, Day 0 (screening) 52.4): 56.4 IU/L | Platelet count (Patient C, Day 57, Day 0 (screening) 392): 413 K/μL | Lactate dehydrogenase (LDH) (Patient C, Day 57, Day 0 (screening) 533): 296 IU/L | Bilirubin direct (Patient C, Day 85, Day 0 (screening) 0.58): <0.01 mg/dL | Absolute neutrophil (Patient C, Day 85, Day 0 (screening) 0.8): 4.9 K/μL | Bilirubin total (Patient C, Day 85): 3.62 mg/dL | Hemoglobin (HGB) (Patient C, Day 85, Day 0 (screening) 7.1): 10.0 g/dL | Reticulocytes (Patient C, Day 85, Day 0 (screening) 13.7): 5.9% | Alanine Aminotransferase (ALT) (Patient C, Day 85, Day 0 (screening) 20.0): 20.6 IU/L | Hematocrit (HCT) (Patient C, Day 85, Day 0 (screening) 21.0): 28.2% | Aspartate Aminotransferase (AST) (Patient C, Day 85, Day 0 (screening) 48.0): 39.1 IU/L | Alkaline phosphatase (Patient C, Day 85, Day 0 (screening) 52.4): 55.4 IU/L | Platelet count (Patient C, Day 85, Day 0 (screening) 392): 457 K/μL | Lactate dehydrogenase (LDH) (Patient C, Day 85, Day 0 (screening) 533): 276 IU/L
